Reference: the OligoGym collection
Several values for one entry are separate records, joined by “and”; a condition that tells them apart may be missing. Equal entries are not always repeated. HELM strings list units from the 5' end as sugar, base in round brackets, then linkage (d deoxyribose, r ribose, m 2'-O-methyl, p phosphodiester). Methylation of C is not given here. [moe] = 2'-O-(2-methoxyethyl) (MOE); [cEt] = constrained ethyl (cEt); [sp] = phosphorothioate linkage

Biological target: HBV
Settings: ASO

RNA1{[moe](G)[sp].[moe](T)[sp].d(T)[sp].d(C)[sp].d(C)[sp].d(G)[sp].d(C)[sp].d(A)[sp].d(G)[sp].d(T)[sp].d(A)[sp].[moe](T)[sp].[moe](G)[sp].[moe](G)[sp].[moe](A)[sp].[moe](T)}$$$$V2.0
target mRNA inhibition (HepG2, 0.07 µM): 56% and 55%

RNA1{[moe](A)[sp].[moe](A)[sp].[moe](G)[sp].d(T)[sp].d(C)[sp].d(C)[sp].d(A)[sp].d(C)[sp].d(C)[sp].d(A)[sp].d(C)[sp].d(G)[sp].d(A)[sp].[cEt](G)[sp].[cEt](T)[sp].[cEt](C)}$$$$V2.0
target mRNA inhibition (HepG2, 0.07 µM): 19% and 25%

RNA1{[moe](A)[sp].[cEt](C)[sp].[cEt](G)[sp].d(G)[sp].d(G)[sp].d(C)[sp].d(A)[sp].d(A)[sp].d(C)[sp].d(A)[sp].d(T)[sp].d(A)[sp].d(C)[sp].[cEt](C)[sp].[cEt](T)[sp].[moe](T)}$$$$V2.0
target mRNA inhibition (HepG2, 0.0092593 µM): 38%
target mRNA inhibition (HepG2, 0.0277778 µM): 73%
target mRNA inhibition (HepG2, 0.07 µM): 63% and 88%
target mRNA inhibition (HepG2, 0.0833333 µM): 87%
target mRNA inhibition (HepG2, 0.25 µM): 92%

RNA1{[moe](T)[sp].[cEt](T)[sp].d(A)[sp].d(T)[sp].d(G)[sp].d(C)[sp].d(C)[sp].d(T)[sp].d(A)[sp].d(C)[sp].d(A)[sp].d(G)[sp].[cEt](C)[sp].[moe](C)[sp].[cEt](T)[sp].[moe](C)}$$$$V2.0
target mRNA inhibition (HepG2, 0.07 µM): 50% and 56%

RNA1{[moe](A)[sp].[moe](G)[sp].[moe](A)[sp].[moe](T)[sp].[moe](G)[sp].d(A)[sp].d(G)[sp].d(G)[sp].d(C)[sp].d(A)[sp].d(T)[sp].d(A)[sp].d(G)[sp].d(C)[sp].[moe](A)[sp].[moe](G)[sp].[moe](C)}$$$$V2.0
target mRNA inhibition (HepG2, 0.07 µM): 41% and 34%

RNA1{[moe](C)[sp].[moe](G)[sp].[moe](G)[sp].[moe](G)[sp].d(C)[sp].d(A)[sp].d(A)[sp].d(C)[sp].d(A)[sp].d(T)[sp].d(A)[sp].d(C)[sp].d(C)[sp].[moe](T)[sp].[moe](T)[sp].[moe](G)}$$$$V2.0
target mRNA inhibition (HepG2, 0.07 µM): 48% and 65%

RNA1{[moe](T)[sp].[moe](G)[sp].[moe](G)[sp].[moe](A)[sp].d(G)[sp].d(C)[sp].d(C)[sp].d(A)[sp].d(C)[sp].d(C)[sp].d(A)[sp].d(G)[sp].d(C)[sp].[moe](A)[sp].[moe](G)[sp].[moe](G)}$$$$V2.0
target mRNA inhibition (HepG2, 0.07 µM): 47% and 35%

RNA1{[moe](T)[sp].[moe](G)[sp].[moe](C)[sp].d(A)[sp].d(G)[sp].d(A)[sp].d(G)[sp].d(G)[sp].d(T)[sp].d(G)[sp].d(A)[sp].d(A)[sp].[moe](G)[sp].[moe](C)[sp].[moe](G)[sp].[moe](A)[sp].[moe](A)}$$$$V2.0
target mRNA inhibition (HepG2, 0.07 µM): 75% and 63%

RNA1{[moe](A)[sp].[moe](G)[sp].[moe](A)[sp].[moe](A)[sp].[moe](G)[sp].[moe](T)[sp].d(C)[sp].d(C)[sp].d(A)[sp].d(C)[sp].d(C)[sp].d(A)[sp].d(C)[sp].d(G)[sp].d(A)[sp].[moe](G)[sp].[moe](T)}$$$$V2.0
target mRNA inhibition (HepG2, 0.07 µM): 39% and 30%

RNA1{[moe](G)[sp].[moe](A)[sp].[moe](G)[sp].[moe](G)[sp].[moe](C)[sp].[moe](A)[sp].d(T)[sp].d(A)[sp].d(G)[sp].d(C)[sp].d(A)[sp].d(G)[sp].d(C)[sp].d(A)[sp].d(G)[sp].[moe](G)[sp].[moe](A)}$$$$V2.0
target mRNA inhibition (HepG2, 0.07 µM): 61% and 45%

RNA1{[moe](A)[sp].[moe](T)[sp].d(G)[sp].d(A)[sp].d(G)[sp].d(G)[sp].d(C)[sp].d(A)[sp].d(T)[sp].d(A)[sp].d(G)[sp].[moe](C)[sp].[moe](A)[sp].[moe](G)[sp].[moe](C)[sp].[moe](A)}$$$$V2.0
target mRNA inhibition (HepG2, 0.07 µM): 53% and 32%

RNA1{[moe](G)[sp].[moe](G)[sp].[cEt](C)[sp].[cEt](A)[sp].d(T)[sp].d(A)[sp].d(G)[sp].d(C)[sp].d(A)[sp].d(G)[sp].d(C)[sp].d(A)[sp].d(G)[sp].[moe](G)[sp].[cEt](A)[sp].[moe](T)[sp].[moe](G)}$$$$V2.0
target mRNA inhibition (HepG2, 0.009375 µM): 27%
target mRNA inhibition (HepG2, 0.01875 µM): 29%
target mRNA inhibition (HepG2, 0.0375 µM): 45%
target mRNA inhibition (HepG2, 0.075 µM): 56%
target mRNA inhibition (HepG2, 0.15 µM): 78%
target mRNA inhibition (HepG2, 0.3 µM): 84%

RNA1{[moe](A)[sp].[moe](G)[sp].[moe](C)[sp].d(G)[sp].d(A)[sp].d(A)[sp].d(G)[sp].d(T)[sp].d(G)[sp].d(C)[sp].d(A)[sp].d(C)[sp].[moe](A)[sp].[moe](C)[sp].[moe](G)[sp].[moe](G)}$$$$V2.0
target mRNA inhibition (HepG2, 0.0092593 µM): 11%
target mRNA inhibition (HepG2, 0.0277778 µM): 34%
target mRNA inhibition (HepG2, 0.07 µM): 79% and 70%
target mRNA inhibition (HepG2, 0.0833333 µM): 66%
target mRNA inhibition (HepG2, 0.25 µM): 87%

RNA1{[moe](T)[sp].[cEt](A)[sp].d(T)[sp].d(G)[sp].d(C)[sp].d(C)[sp].d(T)[sp].d(A)[sp].d(C)[sp].d(A)[sp].d(G)[sp].d(C)[sp].[cEt](C)[sp].[moe](T)[sp].[cEt](C)[sp].[moe](C)}$$$$V2.0
target mRNA inhibition (HepG2, 0.07 µM): 54% and 51%

RNA1{[moe](G)[sp].[moe](A)[sp].[moe](A)[sp].d(C)[sp].d(A)[sp].d(A)[sp].d(A)[sp].d(T)[sp].d(G)[sp].d(G)[sp].d(C)[sp].d(A)[sp].d(C)[sp].[cEt](T)[sp].[cEt](A)[sp].[cEt](G)}$$$$V2.0
target mRNA inhibition (HepG2, 0.0092593 µM): 15%
target mRNA inhibition (HepG2, 0.0277778 µM): 40%
target mRNA inhibition (HepG2, 0.07 µM): 80% and 81%
target mRNA inhibition (HepG2, 0.0833333 µM): 69%
target mRNA inhibition (HepG2, 0.25 µM): 86%

RNA1{[moe](G)[sp].[cEt](A)[sp].[cEt](G)[sp].d(G)[sp].d(C)[sp].d(C)[sp].d(C)[sp].d(A)[sp].d(C)[sp].d(T)[sp].d(C)[sp].d(C)[sp].d(C)[sp].[cEt](A)[sp].[cEt](T)[sp].[moe](A)}$$$$V2.0
target mRNA inhibition (HepG2, 0.0092593 µM): 29%
target mRNA inhibition (HepG2, 0.0277778 µM): 63%
target mRNA inhibition (HepG2, 0.0833333 µM): 87%
target mRNA inhibition (HepG2, 0.25 µM): 85%

RNA1{[moe](G)[sp].[cEt](A)[sp].d(T)[sp].d(G)[sp].d(A)[sp].d(G)[sp].d(G)[sp].d(C)[sp].d(A)[sp].d(T)[sp].d(A)[sp].d(G)[sp].[cEt](C)[sp].[moe](A)[sp].[cEt](G)[sp].[moe](C)}$$$$V2.0
target mRNA inhibition (HepG2, 0.07 µM): 70% and 66%

RNA1{[moe](C)[sp].[cEt](T)[sp].[cEt](G)[sp].d(A)[sp].d(G)[sp].d(G)[sp].d(C)[sp].d(C)[sp].d(C)[sp].d(A)[sp].d(C)[sp].d(T)[sp].d(C)[sp].[cEt](C)[sp].[cEt](C)[sp].[moe](A)}$$$$V2.0
target mRNA inhibition (HepG2, 0.0092593 µM): 58%
target mRNA inhibition (HepG2, 0.0277778 µM): 83%
target mRNA inhibition (HepG2, 0.07 µM): 59% and 84%
target mRNA inhibition (HepG2, 0.0833333 µM): 90%
target mRNA inhibition (HepG2, 0.25 µM): 90%

RNA1{[moe](G)[sp].[moe](G)[sp].d(C)[sp].d(A)[sp].d(T)[sp].d(A)[sp].d(G)[sp].d(C)[sp].d(A)[sp].d(G)[sp].d(C)[sp].[moe](A)[sp].[moe](G)[sp].[moe](G)[sp].[moe](A)[sp].[moe](T)[sp].[moe](G)}$$$$V2.0
target mRNA inhibition (HepG2, 0.07 µM): 55% and 48%

RNA1{[moe](G)[sp].[moe](G)[sp].[moe](C)[sp].[moe](A)[sp].d(T)[sp].d(A)[sp].d(G)[sp].d(C)[sp].d(A)[sp].d(G)[sp].d(C)[sp].d(A)[sp].d(G)[sp].[moe](G)[sp].[moe](A)[sp].[moe](T)[sp].[moe](G)}$$$$V2.0
target mRNA inhibition (HepG2, 0.07 µM): 57% and 53%

RNA1{[moe](A)[sp].[moe](G)[sp].[moe](G)[sp].[moe](C)[sp].[moe](A)[sp].d(T)[sp].d(A)[sp].d(G)[sp].d(C)[sp].d(A)[sp].d(G)[sp].d(C)[sp].d(A)[sp].d(G)[sp].[moe](G)[sp].[moe](A)}$$$$V2.0
target mRNA inhibition (HepG2, 0.0092593 µM): 9%
target mRNA inhibition (HepG2, 0.0277778 µM): 13%
target mRNA inhibition (HepG2, 0.07 µM): 66% and 56%
target mRNA inhibition (HepG2, 0.0833333 µM): 29%
target mRNA inhibition (HepG2, 0.25 µM): 51%

RNA1{[moe](T)[sp].[moe](G)[sp].[moe](A)[sp].d(A)[sp].d(G)[sp].d(C)[sp].d(G)[sp].d(A)[sp].d(A)[sp].d(G)[sp].d(T)[sp].d(G)[sp].[moe](C)[sp].[moe](A)[sp].[moe](C)[sp].[moe](A)}$$$$V2.0
target mRNA inhibition (HepG2, 0.0092593 µM): 11%
target mRNA inhibition (HepG2, 0.0277778 µM): 22%
target mRNA inhibition (HepG2, 0.07 µM): 76% and 66%
target mRNA inhibition (HepG2, 0.0833333 µM): 44%
target mRNA inhibition (HepG2, 0.25 µM): 64%

RNA1{[moe](A)[sp].[moe](A)[sp].[moe](G)[sp].[cEt](C)[sp].[cEt](G)[sp].d(A)[sp].d(A)[sp].d(G)[sp].d(T)[sp].d(G)[sp].d(C)[sp].d(A)[sp].[cEt](C)[sp].[cEt](A)[sp].[moe](C)[sp].[moe](G)[sp].[moe](G)}$$$$V2.0
target mRNA inhibition (HepG2, 0.009375 µM): 23%
target mRNA inhibition (HepG2, 0.01875 µM): 19%
target mRNA inhibition (HepG2, 0.0375 µM): 39%
target mRNA inhibition (HepG2, 0.075 µM): 49%
target mRNA inhibition (HepG2, 0.15 µM): 66%
target mRNA inhibition (HepG2, 0.3 µM): 75%

RNA1{[moe](A)[sp].[moe](C)[sp].d(G)[sp].d(G)[sp].d(G)[sp].d(C)[sp].d(A)[sp].d(A)[sp].d(C)[sp].d(A)[sp].d(T)[sp].[moe](A)[sp].[moe](C)[sp].[moe](C)[sp].[moe](T)[sp].[moe](T)[sp].[moe](G)}$$$$V2.0
target mRNA inhibition (HepG2, 0.07 µM): 46%

RNA1{[moe](G)[sp].[moe](C)[sp].[moe](A)[sp].[moe](G)[sp].d(A)[sp].d(G)[sp].d(G)[sp].d(T)[sp].d(G)[sp].d(A)[sp].d(A)[sp].d(G)[sp].d(C)[sp].[moe](G)[sp].[moe](A)[sp].[moe](A)[sp].[moe](G)}$$$$V2.0
target mRNA inhibition (HepG2, 0.07 µM): 52%

RNA1{[moe](G)[sp].[moe](A)[sp].[moe](T)[sp].d(G)[sp].d(A)[sp].d(G)[sp].d(G)[sp].d(C)[sp].d(A)[sp].d(T)[sp].d(A)[sp].d(G)[sp].d(C)[sp].[cEt](A)[sp].[cEt](G)[sp].[cEt](C)}$$$$V2.0
target mRNA inhibition (HepG2, 0.07 µM): 56% and 66%

RNA1{[moe](C)[sp].[moe](G)[sp].d(C)[sp].d(A)[sp].d(G)[sp].d(T)[sp].d(A)[sp].d(T)[sp].d(G)[sp].d(G)[sp].d(A)[sp].[moe](T)[sp].[moe](C)[sp].[moe](G)[sp].[moe](G)[sp].[moe](C)}$$$$V2.0
target mRNA inhibition (HepG2, 0.0092593 µM): 6%
target mRNA inhibition (HepG2, 0.0277778 µM): 31%
target mRNA inhibition (HepG2, 0.07 µM): 76% and 71%
target mRNA inhibition (HepG2, 0.0833333 µM): 56%
target mRNA inhibition (HepG2, 0.25 µM): 80%

RNA1{[moe](G)[sp].[moe](A)[sp].[moe](A)[sp].[moe](C)[sp].d(T)[sp].d(G)[sp].d(G)[sp].d(A)[sp].d(G)[sp].d(C)[sp].d(C)[sp].d(A)[sp].d(C)[sp].[moe](C)[sp].[moe](A)[sp].[moe](G)}$$$$V2.0
target mRNA inhibition (HepG2, 0.07 µM): 46% and 53%
